What was measured:
Assay type in all cases: biochemical
CRYL1 [1] = target: T1, CRYL1 (Homo sapiens, UniProt Q9Y2S2); assay: 1H NMR, NADH at […] nm and UHPLC-HRMS of product BKG; details: 20 mM potassium phosphate pH 7.9, 25 °C, NAD+ (NMR); oxidation at C3
T1 sequence (Q9Y2S2 2-319): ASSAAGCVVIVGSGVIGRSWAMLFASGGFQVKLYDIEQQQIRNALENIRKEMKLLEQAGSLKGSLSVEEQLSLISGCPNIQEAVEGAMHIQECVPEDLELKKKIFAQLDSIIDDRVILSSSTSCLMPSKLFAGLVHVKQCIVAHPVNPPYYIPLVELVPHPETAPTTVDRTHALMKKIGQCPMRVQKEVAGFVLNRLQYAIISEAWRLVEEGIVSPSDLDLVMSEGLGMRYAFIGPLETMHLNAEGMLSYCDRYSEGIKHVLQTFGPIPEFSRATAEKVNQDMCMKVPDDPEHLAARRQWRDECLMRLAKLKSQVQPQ

DCXR = DCXR (Homo sapiens, UniProt Q7Z4W1); assay: 1H NMR
Chain of DCXR (Q7Z4W1 whole entry): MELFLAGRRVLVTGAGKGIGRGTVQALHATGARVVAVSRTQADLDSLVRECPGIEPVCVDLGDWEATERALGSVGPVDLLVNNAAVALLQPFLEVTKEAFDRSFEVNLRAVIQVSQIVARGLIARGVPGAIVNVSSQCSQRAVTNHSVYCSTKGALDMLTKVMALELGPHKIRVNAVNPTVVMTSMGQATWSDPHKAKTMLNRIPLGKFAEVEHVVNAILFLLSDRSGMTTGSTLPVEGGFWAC

CRYL1 [2] = target: T1, CRYL1; assay: NADH formation at […] nm; details: 20 mM potassium phosphate, 37 °C, L-gulonate

## O=C(O)[C@@H](O)[C@@H](O)[C@H](O)[C@@H](O)CO [L-gulonate]
CRYL1 [1]
  1H NMR, NADH at 340 nm and UHPLC-HRMS of product BKG: the CRYL1 oxidation of L-gulonate at C3 is observed

## NC(=O)c1ccc[n+]([C@@H]2O[C@H](COP(=O)(O)OP(=O)(O)OC[C@H]3O[C@@H](n4cnc5c(N)ncnc54)[C@H](OP(=O)(O)O)[C@@H]3O)[C@@H](O)[C@H]2O)c1 [NADP+]
DCXR; reverse reaction with xylitol, same
  1H NMR: using DCXR in the reverse reaction with xylitol and NADP+ as substrates

## NC(=O)c1ccc[n+]([C@@H]2O[C@H](COP(=O)(O)OP(=O)(O)OC[C@H]3O[C@@H](n4cnc5c(N)ncnc54)[C@H](O)[C@@H]3O)[C@@H](O)[C@H]2O)c1 [NAD^+]
CRYL1 [2]
  NADH formation at 340 nm: exploiting the equilibrium of the NAD-dependent reaction of CRYL1

## OC[C@@H](O)[C@H](O)[C@@H](O)CO [xylitol]
DCXR; reverse reaction with NADP+, 20 mM potassium phosphate pH 7.9, 25 °C
  1H NMR: using DCXR in the reverse reaction with xylitol and NADP+ as substrates

Source: paper PMC12337341 (Proceedings of the National Academy of Sciences of the …, 2025)
